Test results reported in PubChem BioAssay AID179 (DTP/NCI, 2004).
pEC50, pIC50: −log10 of the molar value. “And” between values parts separate entries of the source, which are not always exact repeats. Equal entries are not always repeated. The source made the active and inactive calls.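 How the source made its calls: active means compounds giving half or more protection of infected cells from virus-caused growth loss, again on retest; inactive means the rest.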

Tested on: CEM cells HIV-1 protection, formazan growth assay
Assay: NCI AIDS Antiviral Assay
Details: for pIC50: measured here: growth of uninfected CEM cells
Summary of the method: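 Protection of CEM cells against HIV-1 was scored from cell growth (soluble formazan) across five concentrations, with parallel uninfected cells. Lack of protection may reflect toxicity.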

| Compound | outcome | pEC50 | pIC50 |
| --- | --- | --- | --- |
| N.N.N.N.N.[Co+3].[I-].[N-]=[N+]=[N-] | inactive | – | – |
| Cc1cccc2c1c(=O)c1c(O)cc3c(c1n2C)C=CC(C)(C)O3 | – | 4.49 | < 3.70 |
| O=C(C/C(CCC(=O)N(Cc1ccccc1)Cc1ccccc1)=N/Nc1ccc([N+](=O)[O-])cc1[N+](=O)[O-])c1ccccc1 | inactive | – | – |
| COc1ccc2c(c1)-c1oc3ccccc3c(=O)c1CO2 | – | < 3.70 | 4.49 |
| CCOC(=O)CNC(=O)C(CSSCC(NC(=O)OCc1ccccc1)C(=O)O)NC(=O)OCc1ccccc1 (configuration not stated) | – | < 3.70 | < 3.70 |
| CC1=CCC(Br)C(C)(C)C12CCC(C)(Cl)C(Br)C2 (configuration not stated) | – | < 3.70 | 4.53 |
| COc1ccc(NC(=O)/C(N=O)=C(/C)O)cc1 | – | < 2.98 | < 2.98 |
| CCCc1nn(C)c(CCC(=O)N(Cc2ccccc2)Cc2ccccc2)c1CC | inactive | – | – |
| CC(=O)NC1(C)C(C)C2CC1C(C)C2(C)C (configuration not stated) | – | < 4.07 | < 4.07 |
| Clc1cccc(-c2nc3cccc4c3n2Cc2ncccc2-4)c1 | – | < 3.70 | < 3.70 |
| Cc1ccc(OCCn2cc(Nc3ccccc3)c(=O)[nH]c2=O)cc1 | – | < 3.70 | < 3.70 |
| CC(=O)c1c2n(n(-c3ccccc3)c1=O)C(=O)c1nccnc1-2 | – | < 3.70 | < 3.70 |
| Nc1nnc(N)c2[nH]cnc12 | – | < 3.70 | < 3.70 |
| CC1(C)OC[C@@H]([C@H](O)C2C=CC(=O)S2)O1 (some centres not stated) | inactive | – | – |
| CCCCCCCCN(/N=C/c1c2c(O)c3c(O)c(C)c4c(c3c1O)C(=O)C(C)(O/C=C\C(OC)C(C)C(OC(C)=O)C(C)C(O)C(C)C(O)C(C)/C=C/C=C(C)C(=O)N2)O4)C12CC3CC(CC(C3)C1)C2 (configuration not stated) | – | < 3.70 | 5.05 |
| O=C1CC2C(CC3OC(=O)C4C3C23COC4(O)C(O)C3)c2occc21 (configuration not stated) | – | < 3.70 | 5.49 |
| O=C(CCC(=O)Nc1ccc(Cl)c(Cl)c1)CC(=O)c1ccc(Br)cc1 | – | < 3.55 | < 3.55 |
| Cc1nn2cnnc2s1 | – | < 3.30 | < 3.30 |
| O=c1[nH]c2ccc(Cl)cc2o1 | – | 3.74 | < 3.70 |
| CN(C)Cc1c[nH]c2c1S/C(=C/c1ccccc1)C2=O | – | < 3.75 | 4.78 |
| COc1cc2cccc(N=Cc3ccccc3Cl)c2cc1OC | – | < 4.51 | < 4.51 |
| CN=c1sc2nc(C#N)c(C#N)nc2n1C | – | < 3.70 | 4.99 |

| Compound | outcome | pEC50 | pIC50 |
| --- | --- | --- | --- |
| O=C(O)c1ccccc1/C=N/NC1=NCCN1 | – | < 3.70 | 4.07 |
| COC(=O)/C(C#N)=C\N1CCNC1=S | – | < 3.70 | < 3.70 |
| CSc1nc(N)c2c(n1)NCNS2(=O)=O | – | < 3.00 | < 3.00 |
| NC(CCCCNCC(N)C(=O)O)C(=O)O (configuration not stated) | – | < 3.03 | < 3.03 |
| C#CCOCC12C=CC(O1)C1C(=O)N(C)C(=O)C12 (configuration not stated) | – | < 3.70 | 4.13 and 3.74 |
| Cn1c(=O)c2c(ncn2CCCCOc2ccc3c(c2)[n+]([O-])nc(N)[n+]3[O-])n(C)c1=O | – | < 3.70 | 4.63 |
| O=C(NC(=Nc1ccccc1)SCSC(=Nc1ccccc1)NC(=O)c1ccc(Cl)cc1)c1ccc(Cl)cc1 | – | < 4.00 | < 4.00 |
| CC(=O)NC(CSSCC(NC(C)=O)C(=O)O)C(=O)O (configuration not stated) | – | < 3.11 | < 3.11 |
| COC(=O)c1nn2ccc3ccccc3c2c1C(=O)OC | – | < 3.70 | 4.03 |
| Cn1c(=O)c(-c2ccccc2)c(O)c2ccccc21 | – | < 3.70 | < 3.70 |
| CNC(=O)N(CCCC(NC(C)=O)C(=O)NCc1ccccc1)Cc1ccccc1 (configuration not stated) | – | < 3.22 | < 3.22 |
| Cc1nc(OCc2ccccc2)c2ncn(CCO)c2n1 | – | < 3.70 | < 3.70 |
| CCCc1cc(=O)oc2c3c(c4c(c12)OC(C)(C)C=C4)O[C@H](C)[C@@H](C)[C@@H]3OC(=O)CCl | – | 5.34 | 4.80 |
| COc1cccc(C2SCc3nc4ccccc4n32)c1 (configuration not stated) | inactive | – | – |
| N#CC(C(=O)/C(=N\NC(N)=O)C(C#N)c1ccccc1)c1ccccc1 (configuration not stated) | – | < 3.14 | < 3.14 |
| CCN(CC)C(=O)C1C[C@@H](O)CN1C(=O)c1ccc(OC)c(OC)c1 (some centres not stated) | – | < 3.70 | < 3.70 |
| CC1(C)C(c2ccccc2)=[N+]([O-])C(C)(C)N1O | – | < 3.70 | 3.77 |
| O=C1CCC2(O1)c1ccc(O)cc1Oc1cc(O)ccc12 | – | < 3.70 | < 3.70 |
| OCCN=C1Nc2ccc(Cl)cc2C(=S)N2CSC[C@@H]12 | – | < 3.70 | < 3.70 |
| O=CCCn1[nH]c(=O)ccc1=O | – | < 2.83 | 2.85 |
| COc1cc(Cc2cnc(N)nc2N)cc(OC)c1OCCCNc1ccc([N+](=O)[O-])cc1 | inactive | – | – |
| Oc1ccc2c(c1)OCC1c3cc4c(cc3OC21)OCO4 (configuration not stated) | inactive | – | – |

| Compound | outcome | pEC50 | pIC50 |
| --- | --- | --- | --- |
| CC(C)[C@@H]1CC[C@@H](C)C[C@H]1OC(=O)/C=C1/C2C=CC(O2)C1C(=O)O[C@@H]1C[C@H](C)CC[C@H]1C(C)C (some centres not stated) | – | < 3.70 | < 3.70 |
| CC[N+](C)(CC)CCCC(C)N1C(=O)C2CCCCC2C1=O (configuration not stated) | – | < 3.70 | < 3.70 |
| CC(=O)N/C(=C\c1ccc(/C=C(\NC(C)=O)c2nc3ccc(Cl)cc3[nH]2)cc1)c1nc2ccccc2[nH]1 | inactive | – | – |
| O=C1C[C@@H]2[C@@H](C=CC23CCCC3)N1O | inactive | – | – |
| CS(=O)(=O)NNS(=O)(=O)c1ccc2ccccc2c1 | – | < 3.65 | < 3.65 |
| C=C(C)/C=C/C(O)[C@](C)(O)[C@H]1[C@H](O)C[C@@]2(C)[C@@H]3CCc4c(cc(OC5OC(CO)C(O)C(O)C5O)c(O)c4C)C3(C)C(=O)C[C@]12C (some centres not stated) | – | < 3.70 | < 3.70 |
| Cc1cccc2c1Oc1ccccc1C2NC(=O)CCN(C)C (configuration not stated) | – | < 3.70 | 4.42 |
| Cc1ccccc1Nc1cn(CCOc2ccccc2)c(=O)n(CCOc2ccccc2)c1=O | – | < 3.70 | < 3.70 |
| COC(=O)C1(C#N)C(C)(C)N=C(c2ccccc2)C12CCCCC2 (configuration not stated) | – | < 3.70 | 4.03 |
| CCC1(O)CC(CCN(Cc2ccccc2)C(=O)OCc2ccccc2)C(OCc2ccccc2)C1O (configuration not stated) | – | < 3.70 | 5.04 |
| OCCNCN(CNCCO)c1nc(N(CNCCO)CNCCO)nc(N(CNCCO)CNCCO)n1 | – | < 3.70 | 4.95 |
| CCN=C(NC(=O)c1c(Cl)cccc1Cl)SCSC(=NCC)NC(=O)c1c(Cl)cccc1Cl | – | < 3.70 | 3.77 |
| Cc1cc(=O)[nH]c2c1C(=O)c1c(C)cc(=O)n(C)c1C2=O | – | < 5.70 | 6.59 |
| C=CCCCCCCCCC(=O)NC(C)COC (configuration not stated) | – | < 3.70 | 3.97 |
| N/N=C(\N)c1ccc(NC(=O)c2ccc(C(=O)Nc3ccc(/C(N)=N/N)cc3)cc2)cc1 | – | < 3.70 | 4.03 |
| COc1ccc(-c2c(C#N)c(S)n(C3OC(CO)C(O)C(O)C3O)c(=O)c2C#N)cc1 (configuration not stated) | – | < 3.70 | 3.71 and < 3.70 |
| CCOC(=O)NC(=O)c1cn(CCN2CCN(C(=O)CCCCCCCCCCNc3ncnc4c3ncn4C3OC(CO)C(O)C3O)CC2)c(=O)[nH]c1=O (configuration not stated) | inactive | – | – |
| O=C1CCCCCCCCCCC1Sc1ccccc1 (configuration not stated) | – | < 4.91 | < 4.91 |
| O=C(Nc1ccccc1)C(=O)C(C(=O)c1ccccc1F)C1OC(=O)c2ccccc21 (configuration not stated) | – | < 3.51 | 4.76 |
| NCCN.NCCN.O=C([O-])[O-].O=C([O-])[O-].[Co+3] | inactive | – | – |
| O=C(CCC(=O)CC(O)(C(F)(F)F)C(F)(F)F)CC(O)(C(F)(F)F)C(F)(F)F | – | < 3.70 | 4.32 |
| CN(/N=C/c1cccc2cccnc12)c1ccc([N+](=O)[O-])cc1[N+](=O)[O-] | inactive | – | – |

| Compound | outcome | pEC50 | pIC50 |
| --- | --- | --- | --- |
| CC1(c2ccccc2)CC(c2cccc([N+](=O)[O-])c2)=NO1 (configuration not stated) | inactive | – | 4.36 |
| CS(=O)(=O)OCCC(=O)N1CCN(C(=O)CCOS(C)(=O)=O)CC1 | – | < 3.70 | 4.45 |
| O=C1c2c(n(Cc3ccccc3)c(=O)n2Cc2ccccc2)C(=O)N1Cc1ccccc1 | – | < 4.77 | < 4.77 |
| CCC(=O)OC1(c2ccccc2)CCN(CCC(=O)c2ccccc2)CC1C (configuration not stated) | – | < 3.70 | 5.02 |
| O=C1NC2OCC(O)C(O)C2O1 (configuration not stated) | – | < 3.70 | < 3.70 |
| CC1(C)O[C@@H]2C[C@H]3[C@@H]4C[C@H](F)C5=CC(=O)C=C[C@]5(C)[C@@]4(F)[C@@H](O)C[C@]3(C)[C@]2(C(=O)CO)O1 | – | < 5.70 | 8.13 |
| CC1(C)COC(Cc2ccccc2)=N1 | – | < 3.70 | < 3.70 |
| O=c1oc(-c2ccccc2)nnc1-c1ccccc1 | – | < 3.75 | < 3.75 |
| CCOC(OC1=CCCC1)C(C)[Se]c1ccccc1 (configuration not stated) | – | < 4.65 | < 4.65 |
| Cc1c(C(=O)CC(=O)C(=O)Nc2c(C(C)C)cccc2C(C)C)[n+](=O)c2ccccc2n1[O-] | – | < 5.22 | < 5.22 |
| CCCCNC(=O)/C(=C\c1ccc(OC)c(OC)c1)NC(=O)c1ccccc1 | – | < 3.70 | < 3.70 |
| CCN(CC)Cc1cc2[nH]c3c4ccc(Cl)cc4ncc3c2cc1OC (tested in a mixture with another compound) | – | < 4.00 | 6.34 |
| Cc1cccnc1CC(O)c1ccccc1 (configuration not stated) | – | < 3.70 | 3.97 |
| CC#CCC1CCC(OCC)=CC1=O (configuration not stated) | inactive | – | – |
| CCOC(=O)N/N=C(\Cc1ccccc1)OCC | – | < 3.70 | < 3.70 |
| COc1ccccc1NC(=S)N/N=C/c1c(C)n(C)n(-c2ccccc2)c1=O | – | < 3.70 | 4.19 |
| O=c1c(N(CCO)CCO)cn(C(c2ccccc2)(c2ccccc2)c2ccccc2)c(=O)n1C(c1ccccc1)(c1ccccc1)c1ccccc1 | – | < 3.70 | 5.52 |
| CCN(CC)c1ccc2cc(C(N)=S)c(=N)oc2c1 | – | < 4.21 | 4.69 |
| COc1ccc(CN2CCCN(Cc3ccc(OC)cc3OC)C2c2cc(Cl)cc(Cl)c2O)c(OC)c1 | – | < 3.70 | 4.46 |
| Cc1cccc(NC(=S)Nc2cccc(Cl)c2)n1 | – | < 3.70 | < 3.70 |
| Cc1ccc2c(c1)C(=O)N(N(C)C)CC(=O)N2 | inactive | – | – |
| CCOc1ccc(N=NC2C(=O)N(C(=O)CC(=O)Nc3ccccc3OC)N=C2C)cc1 (configuration not stated) | – | < 3.70 | 5.14 |
